The text below walks through data of patent publication US20260083126A1, “ANTIMICROBIAL COMPOSITIONS” (AHV International B.V., priority 2022, published 2026).

“Also recorded” adds a separate entry of the source.

Series [1] is described as follows: solubility observed when preparing stock solutions. Type of series: physicochemical. To be noted: in water / medium; stock of 2 mM feasible with Tween80 and DMSO. Here is the method: Hereafter, the stock solutions of the compounds were used in three repetitions in a minimal inhibitory concentration (MIC) assay at a 2-fold dilution range with various bacteria from the gram-positive and gram-negative group and a yeast, Candida albicans. The concentrations that show only less than 10% growth after 24 h were considered the MIC90-values, whereas the concentrations that show 50% growth after 24 h when compared to the bacterial growth control were considered the MIC50-values. Escherichia coli and Staphylococcus aureus were used as representatives for a gram-negative bacteria and gram-positive bacteria, respectively. Furthermore, the yeast C. albicans was also tested.
Conclusion and discussion. […] With the addition of solvents like Tween80 and DMSO a stock solution in medium of 2 mM was feasible. This allowed a maximum of testing concentration of 1 mM. […] Therefore, with the application of solvents a maximum testing concentration of 0.575 mM was possible. If the real growth-inhibiting concentration (MIC90) lies above these maximum assay concentrations, then it would not be detected in this assay.

Series [2] relates to AMR Staphylococcus aureus LUH14616 persisters. Nature of the series: Anti-persister experiment, antibiotics-exposed mature biofilm. Type of series: cell-based. To be noted: after 3 days rifampicin and ciprofloxacin, 24 hrs exposure, FIG. 25. Here is the method: Experimental design. The capacity of AM-2 (Bis(4-chlorophenyl) disulfide) and AM-8 to reduce bacterial counts in mature biofilms was assessed as described earlier (Scheper et al (2021) Scheper H, Wubbolts J M, Verhagen J A M, de Visser A W, van der Wal RJJP, Visser L G, de Boer M J G, and Nibbering P H. SAAP-148 eradicates MRSA persisters within mature biofilm models simulating prosthetic joint infection. Front. Microbiol. 12:625952. Doi: 10.3389/fmicb.2021.625952. eCollection 2021) with one modification, i.e., the biofilms were exposed daily to the compounds for up to 4 consecutive days. Briefly, antimicrobial resistant (AMR) Staphylococcus aureus LUH14616 were cultured to mid-log phase in tryptic soy broth (TSB; Oxoid Ltd, Basingstoke, UK) at 37° C. and 200 rpm, centrifuged for 10 min at 3,000 rpm and then resuspended in brain heart infusion broth (BHI; Oxoid Ltd, Basingstoke, UK). Next, approximately 1×10^7 CFU bacteria in BHI were cultured in a 96-well flat-bottom polystyrene microplate sealed with breathable seal for 7 days. […] To take possible slow-growing bacteria into account we analyzed the bacterial plates again after a week. Results are expressed as the number of surviving bacteria (CFU/ml).

The test system of series [3] is Staphylococcus aureus LUH14616 mature biofilms. Nature of the series: Biofilm eradication assay, 7-day mature biofilms. In kind it is cell-based. The settings on record: 7-day mature biofilm. Here is the method:
Biofilm eradication assay. The assay to reduce bacterial counts in mature biofilms was assessed as described earlier (Scheper H J, Wubbolts J M, Verhagen J A M, de Visser A W, van der Wal R J P, Visser L G, de Boer M J J G, and Nibbering P H. SAAP-148 eradicates MRSA persisters within mature biofilm models simulating prosthetic joint infection. Front. Microbiol. 12:625952. Doi: 10.3389/fmicb.2021.625952. eCollection 2021) with a single modification, i.e., the biofilms were exposed daily to AM-8 for up to 4 consecutive days. Briefly, approximately 1×10^7 CFU logarithmic phase bacteria in BHI were cultured in a 96-well flat-bottom polystyrene microplate sealed with breathable seal for 7 days. Next, mature biofilms were washed twice with PBS, then exposed for 24 hrs to AM-8 or as control the diluent of this compound. Hereafter the biofilms were washed and either re-exposed to AM-8/its diluent for another day or—in case of termination of the daily exposures-sonicated for microbiological quantification of the number of viable bacteria. Results are expressed as the number of surviving bacteria at the various days of exposure. Experiment was performed in triplicate.

Series [4] has as its system Staphylococcus aureus LUH14616. In words: Resistance development on repeated exposure (19 passages). Type of series: cell-based. Here is the method: Experimental design. Potential resistance to AM-8 was assessed as described by Habets and Brockhurst (2012) (Therapeutic antimicrobial peptides may compromise natural immunity. Biol Lett 8:416-418). Briefly, log phase bacteria (S. aureus LUH 14616) were diluted in RPMI-mod to a concentration of 2×10^6 CFU/ml. Next, 50 μl of this bacterial suspension were mixed with 50 μl of a range of dilutions of AM-8 or—as comparator-rifampicin in v-bottom 96-wells plates. Thereafter, the plates were covered with a plastic seal and incubated for 24 hrs at 37° C. in a shaking incubator (200 rpm). The plates were then centrifuged for 5 min at 2,000 rpm and the growth inhibition was determined. To start the resistance development testing, 100 μl of a mid-log bacterial suspension containing 2×10^6 CFU/ml were mixed with 150 μl of RPMI-mod and 5 μl of this diluted bacterial suspension were applied to v-bottom wells containing a dilution range of AM-8 or antibiotics (various concentrations below and above MIC) in RPMI-mod (RPMI 1640 modified with 20 mM Hepes and L-glutamine and without sodium bicarbonate (Sigma-Aldrich); further referred to as RPMI-mod). After 24 hrs at 37° C. in a shaking incubator (200 rpm) the growth inhibition was determined. 100 μl of the bacterial suspension from the 0.5×MIC wells were mixed with 150 μl of RPMI-mod and 5 μl of the diluted bacterial suspension were used to inoculate a new 96-wells plate containing a dilution series of AM-8 or rifampicin, and these mixtures were then incubated as described above. If resistance developed, the concentration range of AM-8 and/or antibiotic was adjusted accordingly. This was repeated 19 times. Results are expressed as the fold-increase in MIC compared to the MIC at the start of the experiment.

As for `Clc1ccc(SSc2ccc(Cl)cc2)cc1` [Bis (4-chlorophenyl) disulfide, Bis(4-chlorophenyl) disulfide], the “solubility (observed)” value in series [1] was “low solubility”. Moreover, the “effect on persisters within antibiotics-exposed mature biofilm” value in series [2] is reported as “at the highest dose was effectively against persisters”.
As to `CC(C)SS(=O)(=O)C(C)C` [Di-isopropyl thiosulfonate], the “bacterial counts in mature biofilms, multiple daily exposures” value in series [3] (daily exposure up to 4 days, FIG. 24, listed as AM-8) is “dose-dependently significantly reduced the bacterial counts in mature biofilms; also recorded: able to eliminate all bacteria within biofilms”. The “biofilm reducing effect of a single dose” value in series [3] (dose range study, results not shown) is on record as “increased in time without fully eradicating the bacteria within the biofilm”. Further, in series [4] (19 passages, listed as AM-8), the resistance development result is recorded as “no resistance development; also recorded: little/no resistance”. For the same compound, in series [4] (within 19 passages, two batches, seen occasionally), the “fold-increase in MIC compared to the MIC at the start” value is given as no more than 2 fold.
